Assay results taken from article PMC9781916, “Antipsychotic- and Anxiolytic-like Properties of a Multimodal Compound JJGW08 in Rodents” (International Journal of Molecular Sciences, 2022).

Columns and labels:
[1] = target: human serotonin 5-HT7 receptor (Homo sapiens, UniProt P34969); assay: Functional assay (cAMP, TR-FRET) in CHO-K1 cells, 5-HT7 receptor
Protocol: Test and reference compounds were dissolved in DMSO at a concentration of 1 mM. Serial dilutions were prepared in a 96-well microplate in assay buffer, and 8 to 10 concentrations were tested. […] A functional assay based on cells expressing the human 5-HT7 receptor was performed according to the previously described protocol [16, 45]. CHO-K1 cells were transfected with a beta-lactamase (bla) reporter gene under the control of the cyclic AMP response element (CRE) (Life Technologies, Carlsbad, CA, USA).

[2] = target: T1, human serotonin 5-HT1A receptor (Homo sapiens, UniProt P08908); assay: Functional assay (aequorin, calcium mobilization) in CHO-K1 cells, 5-HT1A receptor; format: cell-based
T1 construct: host or cells: CHO-K1
T1 sequence (P08908 1-422): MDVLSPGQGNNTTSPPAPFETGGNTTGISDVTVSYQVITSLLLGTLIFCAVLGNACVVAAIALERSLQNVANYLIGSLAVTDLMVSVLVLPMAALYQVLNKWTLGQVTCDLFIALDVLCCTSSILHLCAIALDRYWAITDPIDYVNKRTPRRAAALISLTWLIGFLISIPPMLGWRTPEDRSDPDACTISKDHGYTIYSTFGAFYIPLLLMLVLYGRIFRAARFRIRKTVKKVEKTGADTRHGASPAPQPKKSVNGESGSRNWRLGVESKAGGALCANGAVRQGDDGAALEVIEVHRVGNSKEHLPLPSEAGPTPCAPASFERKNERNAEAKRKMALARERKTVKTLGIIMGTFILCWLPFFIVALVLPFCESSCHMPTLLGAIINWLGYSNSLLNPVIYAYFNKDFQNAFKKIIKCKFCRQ
Protocol: Tested and reference compounds were dissolved in dimethyl sulfoxide (DMSO) at a concentration of 10 mM. Serial dilutions were prepared in a 96-well microplate in assay buffer, and 8 to 10 concentrations were tested. […] The assay was executed according to the previously described protocol [45]. After thawing, cells were transferred to assay buffer (DMEM/HAM’s F12 with 0.1% protease-free BSA) and centrifuged. The cell pellet was resuspended in assay buffer, and coelenterazine h was added at final concentrations of 5 µM. The cell suspension was incubated at 16 °C (or 21 °C), protected from light with constant agitation for 16 h (or 4 h), and then diluted with assay buffer to the concentration of 100,000 cells/mL (or 250,000 cells/mL). After 1 h of incubation, 50 µL of the cell’s suspension was dispensed using automatic injectors built into the radiometric and luminescence plate counter MicroBeta2 LumiJET (PerkinElmer, Waltham, NA, USA) into white opaque 96-well microplates preloaded with test compounds. Immediate light emission generated following calcium mobilization was recorded for 30 s. In antagonist mode, after 25–30 min of incubation, the reference agonist was added to the above assay mix, and light emission was re-recorded. […] IC50 and EC50 values were calculated.

rats = assay: Prepulse inhibition test after MK-801 in rats; format: in vivo; conditions: 3.0–30 mg/kg ip, MK-801 0.6 mg/kg ip
Protocol: Figure 5 The influence of JJGW08 on startle response inhibition (Panel (A)) and changes in startle response (Panel (B)) in prepulse inhibition test after MK-801 administration in rats. The test was conducted in the soundproof apparatus, and the startle response amplitude was recorded. The experimental session (after a 5-min habituation period) had strictly defined parameters (prepuls-and-pulse trials: 84/120–prepuls 84 dB (20 ms), pulse 120 dB (40 ms); 90/120–prepuls 90 dB (20 ms), pulse 120 dB (40 ms), sham stimulus (70 dB, 40 ms)), and the startle intensity for each stimulus used in the session was measured. JJGW08 was administered ip 30 min before the test, while MK-801 (0.6 mg/kg) was administered ip 15 min before the start of the experiment. The control group received 0.9% NaCl solution (ip) and MK-801 (0.6 mg/kg, ip). Values are expressed as mean ± SD, n = 7–8 rats per group. […]
The study was conducted as described in detail by Acewicz and colleagues. […] Startle responses, reflecting the motion of animals in the cylinder following the acoustic stimulus, were detected by a piezoelectric transducer mounted below the frame. […] Sound levels in the chambers were measured and calibrated with a sound meter. […] Startle responses were measured for 100 ms after the onset of the last stimulus within each trial. […]

mice = assay: MK-801-induced hyperlocomotion test in mice; format: in vivo; conditions: doses 0.15–2.5 mg/kg ip, MK-801 0.2 mg/kg ip
Protocol: Locomotor activity was recorded in actometers separately for each mouse. After 30 min of adaptation, the number of crossings of photo beams was measured during 60 min. […] MK-801 (0.2 mg/kg, ip) was administered 15 min before the experiment, while amphetamine (2.5 mg/kg) was administered subcutaneously (sc) 30 min before the experiment. […] Values are expressed as means ± SD, n = 8–10 mice per group. Statistical analysis: one-way ANOVA (Newman–Keuls post hoc), * p < 0.05, ** p < 0.01, *** p < 0.001.
The test was performed according to the method described by Carlsson et al.. The mobility of the animals was measured in actometers, i.e., in plastic Opto M3 cages (22 × 12 × 13 cm) connected to a computer with MultiDevice Software v.1.30 (Columbus Instruments, Columbus, OH, USA). The experimental cages were equipped with infrared sources on one side and sensors receiving the emitted rays on the other side of the cage. The crossing of each beam of infrared rays was classified as motor activity. The animals were placed individually in experimental cages immediately after administration of the tested compound, 30 min before the start of the test, to adapt to the new conditions and exclude the occurrence of hyperactivity caused by the change of the environment. Spontaneous locomotor activity was measured every 5 min for 60 min. Mice received two injections: of the tested compound or reference substance (30 min before the test, ip) and of amphetamine (2.5 mg/kg, 30 min before the test, sc) or MK-801 (0.2 mg/kg, 15 min before the test, ip). Control groups received an injection of saline and amphetamine or MK-801, or two injections of saline, respectively. Olanzapine was used as a reference compound.

[3] = 5-HT7, antagonist mode, 10 nM serotonin as reference agonist
[4] = antagonist mode, 100 nM serotonin as reference agonist

Chain of human serotonin 5-HT7 receptor (P34969 whole entry): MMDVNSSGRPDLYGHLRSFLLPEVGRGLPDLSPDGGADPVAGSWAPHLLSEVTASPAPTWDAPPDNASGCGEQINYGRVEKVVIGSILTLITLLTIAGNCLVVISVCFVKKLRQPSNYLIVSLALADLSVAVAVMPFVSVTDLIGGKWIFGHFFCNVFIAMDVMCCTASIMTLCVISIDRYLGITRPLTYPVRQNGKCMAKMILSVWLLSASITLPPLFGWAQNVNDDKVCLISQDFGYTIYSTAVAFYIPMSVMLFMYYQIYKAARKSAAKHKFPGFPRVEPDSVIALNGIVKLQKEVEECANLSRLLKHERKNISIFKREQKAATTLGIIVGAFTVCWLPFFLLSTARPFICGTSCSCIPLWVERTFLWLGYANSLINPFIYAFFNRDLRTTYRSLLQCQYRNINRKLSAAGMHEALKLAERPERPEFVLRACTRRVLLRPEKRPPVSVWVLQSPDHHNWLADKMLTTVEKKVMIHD

## COc1ccccc1N1CCN(CCCCCOc2ccccc2C(N)=O)CC1.Cl [JJGW08, 2-{5-[4-(2-metoksyfenylo)piperazin-1-ylo]pentoxy}benzamide hydrochloride]
[1]; 5-HT7, agonist mode
  Agonist Mode Emax%: 1%
[1]; [3]
  Antagonist Mode Emax%: 4%
  Antagonist Mode pIC50 ± Range: 6.4 ± 0.1
[1]; 5-HT7 functional assay
  antagonistic properties (in words): very weak antagonistic properties
[1]; read-out: Antagonist Mode Kb, 5-HT7, antagonist mode, Cheng equation
  Kb: 0.19 µM
[2]; agonist mode
  Agonist Mode Emax%: 9%
[2]; [4]
  Antagonist Mode Emax%: 1%
  Antagonist Mode pIC50 ± Range: 8.3 ± 0.1
rats
  reversal of deficits in sensorimotor gating induced by MK-801 (in words): did not reverse the deficits
rats; prepulse 84 or 90 dB
  startle reaction inhibition (%PPI): −0.2 to 24.4%
mice
  reduction of MK-801-induced hyperactivity: 24–71%
